Experimental findings from paper PMC5430874 (Scientific Reports, 2017) are described below.

Structures are written as SMILES. Residue numbers refer to the chain shown, from its start. Read-outs that look alike come from different tables or passages of the source.

In one experiment the target is T1, GPR139 E108A^3×32 (Homo sapiens, UniProt Q6DWJ6, E108A).
T1 construct: mGluR5 signal peptide (N); expressed in transfected cells; host or cells: HEK293
T1 sequence (Q6DWJ6 2-353 E108A limits assumed): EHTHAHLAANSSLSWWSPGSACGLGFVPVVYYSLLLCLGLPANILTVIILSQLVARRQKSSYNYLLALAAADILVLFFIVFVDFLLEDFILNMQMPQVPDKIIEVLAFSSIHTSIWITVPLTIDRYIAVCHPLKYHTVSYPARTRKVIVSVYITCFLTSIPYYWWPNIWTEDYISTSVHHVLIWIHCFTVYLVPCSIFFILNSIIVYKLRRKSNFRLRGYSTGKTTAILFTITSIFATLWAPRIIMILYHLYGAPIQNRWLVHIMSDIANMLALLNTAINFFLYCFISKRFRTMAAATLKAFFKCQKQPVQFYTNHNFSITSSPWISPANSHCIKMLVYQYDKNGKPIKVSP
The experiment can be described thus: Fluo-4 Ca2+-assay, GPR139 mutant E108A. It counts as cell-based. As to conditions: for EC50: E108A mutant. From the text: (§1) To study the influence of specific amino acids in the predicted binding pocket on receptor function, the desired mutations were introduced into an N-terminally c-myc-tagged wild type human GPR139 (NM_001002911.3) in the pEGFP-N1 vector (BD Biosciences)[32], [33]. As previously described, these plasmids carry the signal peptide of mGluR5 to promote cell surface expression followed by a c-myc epitope to enable detection of total and surface expression by ELISA, followed by an engineered MluI and NotI site for easy insertion of the receptor of interest. Furthermore, the start-codon in the GPR139 sequence was deleted to ensure c-myc-tagging. Mutagenesis was designed in Serial Cloner 2.6 (© Franck Perez [SerialBasics]) and carried out by GenScript (USA). All mutated residues are illustrated in Supplementary Fig. 1b. An untagged GPR139(WT) in pEGFP-N1 was also generated to ensure that the c-myc-tag had no influence on GPR139(WT) function.
(§2) All GPR139 mutants were transfected into HEK293 cells. The HEK293 cells were grown in Dulbecco’s modified Eagle’s medium (DMEM) (Gibco, 41965) supplemented with 10% dialyzed fetal bovine serum (Gibco, 26400, United States origin), 100 units/mL penicillin and 100 μg/mL streptomycin (Gibco, 15140). HEK293 cells were reverse transfected using Lipofectamine2000 (Invitrogen). More specifically two mixtures were made: 1) 10 ng DNA/well + 25 μL Opti-MEM/well and 2) […] Lipofectamine2000/well + 25 μL Opti-MEM/well. The two mixtures were mixed and 50 μL/well was added directly in black 96-well plates with flat clear bottoms for the Fluo-4 Ca^2+-assay (Corning, Falcon, 353219) or in white Opaque 96-well Microplate (PerkinElmer Life, 6005680) for ELISA. 100 μL containing 20,000 cells were added to each well and incubated 48 hours before assays. All plates were coated with poly-D-lysine.
(§3) Compound 1a (1a) was kindly provided by H. Lundbeck A/S, Denmark. […] Both compounds were dissolved to 20 mM in DMSO (Sigma, D2650) and subsequently diluted in a HEPES buffer (HBSS (Gibco, 14025) supplemented with 20 mM HEPES + 1 mM MgCl2 + 1 mM CaCl2, pH = 7.4) to a final concentration of 0.5% DMSO in the Fluo-4 Ca^2+-assay. The DMSO level was kept constant for all concentrations of both compounds. DMSO was confirmed not to have any activity by itself at this concentration. L-Trp (T0254) and L -Phe (P2126) were obtained from Sigma-Aldrich and dissolved in buffer.
(§4) The Ca^2+ measurements were preformed using the Fluo-4 NW Calcium Assay Kit (Invitrogen, Molecular Probes, F36206) as previously described. Briefly, the Fluo-4 dye loading solution was prepared according to the manufacturer’s instructions by dissolving it in HEPES-buffer supplemented with 2.5 mM probenecid. 50 μL dye loading solution was added to each well. Cells were incubated with the Fluo-4 dye for 60 min at 37 °C, then washed with 100 μL HEPES-buffer. 100 μL HEPES-buffer supplemented with 2.5 mM probenecid was then added to each well and incubated in 10 minutes at 37 °C before measurement. […] Intracellular calcium changes were recorded as indicated on either a NOVOstar (BMG Labtech) at 37 °C with an excitation filter of 485 nm and an emission filters 520 nm or a FlexStation 3 Benchtop Multi-Mode Microplate Reader (Molecular Devices) at 37 °C with an excitation wavelength of 485 nm and emission of 525 nm.
(§5) All pharmacological data have been analyzed by using Prism 6.0 (GraphPad Software Inc., San Diego). Fitting of concentration response curves was performed by non-linear regression log(agonist) vs. response (four parameters). Pooled data are shown with standard error of the mean (S.E.M.) and data showing one representative are shown with standard deviation (S.D.). Changes in potency (pEC50) and span of myc-GPR139(WT) in comparison to untagged GPR139(WT) was statistically analyzed with a paired t-test and significance was accepted at p < 0.05. The ELISA data were normalized to surface expression of myc-GPR139(WT) (100%). […]

The next experiment addresses T2, GPR139 N271A^7×38 (Homo sapiens, UniProt Q6DWJ6, N271A).
T2 construct: mGluR5 signal peptide (N); expressed in transfected cells; host or cells: HEK293
T2 sequence (Q6DWJ6 2-353 N271A limits assumed): T1 sequence (Q6DWJ6 2-353 E108A limits assumed) with A107E, N270A
The experiment can be described thus: Fluo-4 Ca2+-assay, GPR139 mutant N271A. The experiment is classed as cell-based. More on the design: key to Emax ± SEM: NE: no effect (loss of activity). As to conditions: for EC50: N271A mutant (surface expression 53% of WT); for Change of in vitro potency: N271A mutant versus WT.
Excerpt: as §1, §2, §3, §4, §5

Where [1] appears, read: three independent experiments, read-out: pEC50 ± SEM (converted).
[2] abbreviates: only one experiment, read-out: pEC50 (converted).

In the case of `C[C@@H](NC(=O)CNC(=O)c1cccc(Cl)c1)c1ccccc1` (racemic) [Compound 7c], at GPR139 E108A^3×32 (setting [1]), the EC50 was 0.151 µM. For the same molecule, the Emax at GPR139 E108A^3×32 (read-out: Emax ± SEM) was 112 ± 10%. At GPR139 N271A^7×38, the EC50 was more than 100 µM and the “Change of in vitro potency” value is listed as “Loss of function”. At GPR139 N271A^7×38 (N271A, at 100 μM, normalized to buffer (0%) and 100 μM 7c (100%) on WT), the “Emax ± SEM” value is listed as “NE**”.

As to `COc1cc(OC)cc(C(=O)NNC(=O)Nc2cccc3ccccc23)c1` [Compound 1a], the change of potency entry on GPR139 E108A^3×32 (E108A mutant versus WT) is on record as “no effect”. Besides, the EC50 is 0.209 µM on GPR139 E108A^3×32 (setting [1]) and more than 7.94 µM on GPR139 N271A^7×38. Further, the Emax on GPR139 E108A^3×32 (E108A, normalized to buffer (0%) and 8 μM 1a (100%) on WT, read-out: Emax ± SEM) stood at 151 ± 9%. In addition, the “Change of in vitro potency” value on GPR139 N271A^7×38 is recorded as “Loss of function”. For the same molecule, the “Emax ± SEM” value at GPR139 N271A^7×38 (N271A, at 8 μM, normalized to buffer (0%) and 8 μM 1a (100%) on WT) is “NE*”.

`N[C@@H](Cc1ccccc1)C(=O)O` [L-Phe, phenylalanine]: the results for the EC50 at GPR139 E108A^3×32 (setting [2]) and on GPR139 N271A^7×38 were 251 µM and more than 31600 µM, respectively. The Emax at GPR139 E108A^3×32 (E108A, normalized to buffer (0%) and 30 mM Phe (100%) on WT, n=1, read-out: Emax) is 127%. Also, the maximum response (Emax) at 30000 µM at GPR139 N271A^7×38 (N271A, at 30 mM, normalized to buffer (0%) and 30 mM Phe (100%) on WT) was determined as 38 ± 9%.

In the case of `N[C@@H](Cc1c[nH]c2ccccc12)C(=O)O` [L-Trp, tryptophan], the EC50 is 166 µM at GPR139 E108A^3×32 (setting [2]) and more than 10000 µM at GPR139 N271A^7×38. Moreover, the Emax on GPR139 E108A^3×32 (E108A, normalized to buffer (0%) and 10 mM Trp (100%) on WT, n=1, read-out: Emax) turned out to be 125%. Also, the Emax at 10000 µM at GPR139 N271A^7×38 (N271A, at 10 mM, normalized to buffer (0%) and 10 mM Trp (100%) on WT) came to 31 ± 5%.

By Emax is commonly meant the size of the effect at its maximum, as opposed to the concentration needed.
